Consider 14 compounds from ChEMBL document CHEMBL1201862, “PubChem BioAssay data set” (2004).

Some test systems named below: SN12C; Malme-3M; SK-MEL-2; RXF 393; MOLT-4; SK-OV-3; SF-539; A549; UO-31; SF-268; HT-29; UACC-257; U-251; NCI-H460; RPMI-8226; HCT-116.
Experiment in all cases: inhibition of tumour cell growth, NCI panel, 48 h

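Five concentrations, 48 hours, 96-well plates. GI50 = concentration required for 50% inhibition of growth.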 Calls of active or inactive are those of the source. Rule as the data show it: active = GI50 up to about 1.1 µM and inactive = higher.

`COC1OC(COCc2ccc(Cl)cc2)C(OCc2ccc(Cl)cc2)C1O` (stereo not given): the GI50 is 14.9 µM (inactive) in the assay on SN12C; 15.8 µM (inactive) in the assay on Malme-3M; 16.3 µM (inactive) with SK-MEL-2; 15.1 µM (inactive) in the assay on RXF 393; 20.2 µM (inactive) with MOLT-4; 33.9 µM (inactive) in the assay with SK-OV-3. Moreover, the GI50 in the assay with SF-539 is 16.3 µM (inactive); in the assay on A549, 17.3 µM (inactive); in the assay on UO-31 it was 15.1 µM (inactive); in the assay on SF-268 it was 17.1 µM (inactive); in the assay with HT-29 it was 17.9 µM (inactive); in the assay with UACC-257 it was 16.3 µM (inactive). Besides, the GI50 in the assay with U-251 was 15.6 µM (inactive); with NCI-H460, 17.4 µM (inactive); in the assay on RPMI-8226, 23.9 µM (inactive).
As to `N#CC(C(=O)/C(=N/N)C(C#N)c1ccc(Cl)cc1)c1ccc(Cl)cc1` (stereo not given), the GI50 in the assay with SN12C, in the assay on Malme-3M, in the assay with SK-MEL-2, in the assay with RXF 393, in the assay with MOLT-4 and in the assay with SF-539 was > 100 µM (inactive) each time. Besides, the GI50 with A549, in the assay on UO-31, with SF-268, in the assay on HT-29, in the assay with HCT-116 and in the assay with UACC-257 was > 100 µM (inactive) throughout. Moreover, the GI50 in the assay with U-251, in the assay with NCI-H460 and in the assay on RPMI-8226 was > 100 µM (inactive) each time.
In the case of `C=C(COC(C)=O)CC(/C=C(\C)CCC=C(C)C)OC(C)=O` (stereo not given), the GI50 in the assay on SN12C was > 100 µM (inactive); in the assay on SK-MEL-2 it was > 100 µM (inactive); in the assay with RXF 393, > 100 µM (inactive); with MOLT-4, 48.4 µM (inactive); in the assay on SK-OV-3, > 100 µM (inactive); in the assay with SF-539 it was > 100 µM (inactive). Moreover, the GI50 with A549, with UO-31, with SF-268, in the assay with HT-29, in the assay on HCT-116 and in the assay with U-251 was > 100 µM (inactive) each time. Besides, the GI50 is > 100 µM (inactive) in the assay with NCI-H460 and > 10 µM (inactive) with RPMI-8226.
Turning to `OC/C=C(\I)CCCOCOCc1ccccc1`, the GI50 is 42.9 µM (inactive) in the assay on SN12C; 19.2 µM (inactive) in the assay with SK-MEL-2; 16.4 µM (inactive) with RXF 393; 3.1 µM (inactive) in the assay on MOLT-4; > 100 µM (inactive) in the assay on SK-OV-3; 50.6 µM (inactive) in the assay with SF-539. In addition, the GI50 with A549 was 32 µM (inactive); in the assay on UO-31 it was 25.4 µM (inactive); in the assay with SF-268 it was 27.7 µM (inactive); in the assay on HT-29, 36.2 µM (inactive); with HCT-116 it was 28.1 µM (inactive); in the assay on U-251 it was 23.4 µM (inactive). For the same compound, the GI50 in the assay on NCI-H460 is 40.7 µM (inactive); in the assay with RPMI-8226 it was 18.2 µM (inactive).
Turning to `Cc1nc2sccn2c1C(=O)NNC(N)=S`, the GI50 with SN12C, in the assay with Malme-3M, in the assay with SK-MEL-2, in the assay on RXF 393, with MOLT-4 and with SK-OV-3 was > 100 µM (inactive) throughout. For the same compound, the GI50 in the assay on SF-539, in the assay with A549, in the assay on SF-268, with HT-29, in the assay with HCT-116 and in the assay on UACC-257 was > 100 µM (inactive) in each case. In addition, the GI50 with U-251, with NCI-H460 and in the assay on RPMI-8226 was > 100 µM (inactive) in each case.
For the compound `CCOc1ncnc2ccc(Cl)c(I)c12`, the GI50 in the assay on SN12C was 67.5 µM (inactive); in the assay on Malme-3M it was > 100 µM (inactive); with SK-MEL-2, 53.1 µM (inactive); in the assay with RXF 393, 15 µM (inactive); with SK-OV-3 it was 36.4 µM (inactive); with A549, 75.7 µM (inactive). Also, the GI50 with UO-31 is 27.7 µM (inactive); with SF-268, 31.2 µM (inactive); in the assay with HT-29, > 100 µM (inactive); in the assay with HCT-116 it was 82.2 µM (inactive); with UACC-257 it was > 100 µM (inactive); with U-251, > 100 µM (inactive). The GI50 is 80.7 µM (inactive) with NCI-H460 and 29.5 µM (inactive) in the assay with RPMI-8226.
As to `COC12OCCN(CCO)C1=CC(=O)C1(C)N=NC(C)C12` (stereo not given), the GI50 with SN12C, in the assay with Malme-3M, with RXF 393, in the assay on MOLT-4, with SK-OV-3 and with SF-539 was > 100 µM (inactive) each time. Moreover, the GI50 with A549, in the assay on UO-31, in the assay on HT-29, in the assay on HCT-116, in the assay on UACC-257 and in the assay on U-251 was > 100 µM (inactive) in each case. Further, the GI50 with NCI-H460 and in the assay on RPMI-8226 was > 100 µM (inactive) throughout.
For the compound `Clc1ccccc1C1SCc2nc3ccccc3n21` (stereo not given), the GI50 with SN12C was 18 µM (inactive); in the assay on Malme-3M, 17.7 µM (inactive); in the assay with SK-MEL-2, 22 µM (inactive); in the assay on RXF 393, 24.5 µM (inactive); in the assay on MOLT-4, 23.6 µM (inactive); in the assay with SK-OV-3, 27.6 µM (inactive). Moreover, the GI50 with SF-539 is 33.5 µM (inactive); in the assay with A549 it was 32.6 µM (inactive); in the assay on SF-268, 37.1 µM (inactive); in the assay with HT-29, 29.4 µM (inactive); in the assay with HCT-116, 18.7 µM (inactive); in the assay with U-251, 22.8 µM (inactive). The GI50 in the assay with NCI-H460 was 30.1 µM (inactive); with RPMI-8226, 20 µM (inactive).
As for `COc1ccc2nc(NC(=O)C(=O)CC(=O)c3ccc(Cl)cc3)sc2c1`, the GI50 in the assay on SN12C is > 100 µM (inactive); with Malme-3M it was > 100 µM (inactive); in the assay with SK-MEL-2 it was > 100 µM (inactive); with RXF 393, 31.3 µM (inactive); with MOLT-4, > 100 µM (inactive); in the assay with SK-OV-3, 34.7 µM (inactive). Besides, the GI50 was 17.3 µM (inactive) in the assay on SF-539; 67.1 µM (inactive) in the assay on A549; 69 µM (inactive) with UO-31; 85.3 µM (inactive) with SF-268; > 100 µM (inactive) with HT-29; > 100 µM (inactive) with HCT-116. Further, the GI50 in the assay on UACC-257 is > 100 µM (inactive); with U-251 it was 48.4 µM (inactive); in the assay with NCI-H460 it was > 100 µM (inactive).
`CSCC1CC(c2ccc(Cl)cc2)=NO1` (stereo not given): the GI50 in the assay with SN12C, with Malme-3M, in the assay with SK-MEL-2, with MOLT-4, with SK-OV-3 and in the assay with SF-539 was > 100 µM (inactive) throughout. Also, the GI50 in the assay with A549, in the assay on UO-31, with SF-268, in the assay with HT-29, in the assay with HCT-116 and in the assay on UACC-257 was > 100 µM (inactive) each time. Moreover, the GI50 in the assay on U-251, in the assay with NCI-H460 and in the assay on RPMI-8226 was > 100 µM (inactive) throughout.
Turning to `COC(=O)C(=O)OC1(C(C)=O)CC2(c3ccccc3)OC1(c1ccccc1)c1ccccc12` (stereo not given), the GI50 in the assay with SN12C was 15 µM (inactive); in the assay with Malme-3M, 19.1 µM (inactive); in the assay with RXF 393, 15.4 µM (inactive); in the assay on MOLT-4, 22 µM (inactive); with SK-OV-3, 29.9 µM (inactive); in the assay with SF-539 it was 13 µM (inactive). Besides, the GI50 in the assay with A549 was 14.8 µM (inactive); with UO-31, 14.2 µM (inactive); in the assay with SF-268, 20 µM (inactive); with HT-29, 17 µM (inactive); with HCT-116, 16.2 µM (inactive); with UACC-257, 16.2 µM (inactive). For the same compound, the GI50 in the assay on U-251 was 16.4 µM (inactive); in the assay with NCI-H460 it was 18.4 µM (inactive); in the assay with RPMI-8226, 20.8 µM (inactive).
As to `O=c1oc2c3ccc4ccccc4c3n(CCN3CCOCC3)c2c2ccccc12`, the GI50 in the assay with Malme-3M is > 100 µM (inactive); in the assay with MOLT-4, 1.69 µM (inactive); in the assay with SK-OV-3 it was > 100 µM (inactive); in the assay with SF-539, 3.76 µM (inactive); in the assay with A549, 5.42 µM (inactive); in the assay on UO-31, 0.622 µM (active). Besides, the GI50 in the assay with SF-268 was 19.7 µM (inactive); in the assay with HT-29, 27.4 µM (inactive); in the assay on HCT-116 it was > 100 µM (inactive); in the assay on UACC-257, > 100 µM (inactive); in the assay on NCI-H460, 0.755 µM (active); in the assay with RPMI-8226 it was 46.5 µM (inactive).
Regarding `O=C1c2ccccc2N2Oc3ccccc3C12c1ccccc1` (stereo not given), the GI50 in the assay with SN12C, in the assay on Malme-3M, in the assay on RXF 393, in the assay with MOLT-4, in the assay with SK-OV-3 and in the assay on SF-539 was > 100 µM (inactive) throughout. In addition, the GI50 in the assay with A549, with UO-31, with SF-268, in the assay with HT-29, in the assay on HCT-116 and in the assay with UACC-257 was > 100 µM (inactive) each time. The GI50 in the assay on U-251 and with RPMI-8226 was > 100 µM (inactive) each time.
For `CCOC(=N)CC(=O)c1ccccc1`, the GI50 in the assay on SN12C, in the assay on Malme-3M, in the assay on SK-MEL-2, with RXF 393, in the assay with MOLT-4 and in the assay on SK-OV-3 was > 100 µM (inactive) throughout. Moreover, the GI50 in the assay on SF-539, in the assay with A549, in the assay on UO-31, with SF-268, in the assay with HT-29 and with HCT-116 was > 100 µM (inactive) in each case. The GI50 in the assay on UACC-257 and in the assay with U-251 was > 100 µM (inactive) throughout.
